# Test results from publication PMC11567856, “A novel peptide‐based tau aggregation inhibitor as a potential therapeutic for Alzheimer's disease and other tauopathies” (Alzheimer's & Dementia, 2024).
# pIC50: −log10 of the molar value. Where a SMILES comes first, the peptide text is derived from it. [ ]: non-standard residue; d: D form.
# How the values were obtained:
# [1] = system: Drosophila expressing hTau^2N4R in retinal photoreceptors; test: Drosophila eye experiments (GMR‐hTau^2N4R rough eye, eye size); format: in vivo, Drosophila melanogaster
# Experimental: Drosophila eye experiments: UAS-Tau^2N4R flies (BDSC_51363) were recombined to GMR-GAL4 (BDSC_8605) driver to generate stable GMR-hTau^2N4R lines (BDSC_51361). GMR-GAL4 was used as the “healthy” control. Progeny was reared on standard fly food supplemented with RI-AG03; 0.08, 0.8, 20, and 40 μM at 25°C. As controls, Tau, and driver-alone flies were incubated without the inhibitor. Freshly eclosed flies were monitored daily using a light microscope and 1-day-old live flies were imaged (n = 5/treatment) and processed on ImageJ to measure eye width. Ommaditial disorderliness quantification was done using Flynotyper ImageJ plugin.[48] Quantification of rough eye phenotype: Quantitative analysis of the total distance ommatidial disorderliness index of all stable ommatidia [Odld] was performed using the ImageJ plugin “Flynotyper.”[48] Analysis was performed using images taken by light microscope, and 150 ommatidia were considered and ranked by stability and distance to the center. Between four and five animals per genotype were analyzed. Scanning Electron Microscopy (SEM): Flies were euthanized, fixed in 2.5% glutaraldehyde in PBS, and had three 5-min washes in PBS. Samples were dehydrated for 30-min at each ethanol concentration: 50%, 70%, 80%, 90%, and 100%. Samples were transferred to hexamethyldisilazane for two 30-min changes, after which hexamethyldisilazane was sublimated overnight. […]
# Tau^Δ1‐250 [2] = target: T1, Tau^Δ1‐250 (Homo sapiens, UniProt P10636); test: Congo-red staining of Tau^Δ1‐250 fibrils; format: biochemical; conditions: Tau^Δ1‐250 incubated in the presence of RI‐AG03 (Figure S11)
# T1 construct: Tau^Δ1‐250 (an aggregate prone truncated version of full‐length Tau); made in house; host or cells: E. coli BL21(DE3)
# T1 sequence (P10636 568-758, stated change not applied): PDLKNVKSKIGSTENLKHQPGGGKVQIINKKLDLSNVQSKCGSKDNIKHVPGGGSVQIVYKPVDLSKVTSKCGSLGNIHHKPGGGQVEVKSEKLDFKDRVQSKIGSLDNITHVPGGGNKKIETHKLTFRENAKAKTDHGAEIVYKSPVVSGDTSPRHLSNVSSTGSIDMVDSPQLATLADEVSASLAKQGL
# Experimental: Tau filament formation is expected to coincide with a reduction in disordered structure and an increase in β‐sheet content, even as the intermediary on‐pathway oligomers form.[67] […] However, the off‐pathway Tau aggregates that we have previously described have reduced β‐sheet content.[69] To study the β‐sheet content of the large amorphous aggregates formed in the presence of RI‐AG03, samples were analyzed using time‐resolved circular dichroism (CD) to investigate spectra changes indicative of secondary structure in the presence of RI‐AG03 over 5 h (Tau^Δ1‐250 aggregation plateaus at ∼5 h) (Figure 4E). The negative transition at 195 nm is characteristic of random coil structures being present within the Tau^Δ ^1‐250 (blue). […] Although challenging to deconvolute the increase in the negative ellipticity between ∼205 and 235 nm is consistent with the appearance of secondary structural elements including β‐strands. […] This reduction in β‐sheet content is corroborated by congo‐red staining, where the strong apple‐green birefringence observed for the Tau^Δ1‐250 fibrils was eliminated when the Tau^Δ1‐250 was incubated in the presence of RI‐AG03 (Figure S11).
# Tau^Δ1‐250 [3] = target: T1, Tau^Δ1‐250; test: ThT fluorescence, heparin-induced aggregation of Tau^Δ1‐250; format: biochemical
# Experimental: Fluorescence was measured (λex = 442 nm, λem = 483 nm), and data were normalized. […] The addition of inhibitor to the growth phase was controlled by adding an equivalent volume of buffer alone.
# Experiments were conducted in triplicate and error bars were reported as standard deviation. Statistical analysis: p > 0.05, *p ≤ 0.05, **p ≤ 0.01, ***p ≤ 0.001.
smiles,measurement,setting,value
CC[C@@H](C)[C@@H](NC(=O)[C@@H](CCCCNC(C)=O)NC(=O)[C@@H](Cc1ccc(O)cc1)NC(=O)[C@@H](CCCCN)NC(=O)[C@H]1CCCN1C(=O)CNC(=O)[C@@H](CCCNC(=N)N)NC(=O)[C@@H](CCCNC(=N)N)NC(=O)[C@@H](CCCNC(=N)N)NC(=O)[C@@H](CCCNC(=N)N)NC(=O)[C@@H](CCCNC(=N)N)NC(=O)[C@@H](CCCNC(=N)N)NC(=O)[C@@H](CCCNC(=N)N)NC(=O)[C@@H](CCCNC(=N)N)NC(C)=O)C(=O)N[C@H](CCC(N)=O)C(=O)N[C@@H](C(=O)NCC(=O)N[C@H](CCCNC(=N)N)C(N)=O)C(C)C [RI‐AG03] (Ac-[dR][dR][dR][dR][dR][dR][dR][dR]G[dP][dK][dY][dK](Ac)[dI][dQ][dV]G[dR]-NH2),eye size of hTau^2N4R transgenics,"[1]; GMR‐hTau^2N4R flies reared on food with 40 µM RI‐AG03, 25°C, versus untreated, n = 5/treatment",significantly improved
same,"ommatidial disorganization (Odld, Flynotyper)","[1]; GMR‐hTau^2N4R flies treated with RI‐AG03, n=4-5/condition",significantly improved
same,apple‐green birefringence of Tau^Δ1‐250 fibrils (congo‐red),Tau^Δ1‐250 [2],eliminated
same,pIC50,Tau^Δ1‐250 [3],5.11
same,inhibition of Tau^Δ1‐250 aggregation,"Tau^Δ1‐250 [3]; ThT end-point after 24 h, 37°C, 20 µM Tau^Δ1‐250, 20 µM peptide (equimolar), 5 µM heparin, 30 mM Tris, 1 mM DTT, 15 µM ThT, pH 7.4, triplicate",~94%
same,effect when added during the growth phase of Tau^Δ1‐250 aggregation,"Tau^Δ1‐250 [3]; ThT kinetics 12 h, 20 µM Tau^Δ1‐250, 20 µM RI‐AG03 added 1 h after aggregation was initiated",halted any further aggregation
